{"source": "ChEMBL document CHEMBL6074662", "about": "“Antibacterial, Antibiofilm, and Anti-inflammatory Effects of a Novel Thrombin-Derived Peptide in Sepsis Models: Insights into Underlying Mechanisms” (J Med Chem, 2024)", "key": {"[1]": {"tested_on": "Escherichia coli", "experiment": "Antibacterial activity against Escherichia coli KCTC 1682 assessed as zone of clearance incubated for 4 hrs in presence of pepsin by radical diffusion assay", "assay_type": "functional, organism-based"}, "[2]": {"experiment": "Proteolytic stability of compound assessed as trypsin (unknown origin)-mediated drug degradation at 150 uM incubated for 24 hrs by RP-HPLC analysis", "assay_type": "ADME", "details": "human"}, "[3]": {"experiment": "Effect on secondary structure of drug in SDS assessed as formation of left-handed alpha-helical conformation at 150 uM by CD analysis", "assay_type": "physicochemical"}, "[4]": {"tested_on": "Pseudomonas aeruginosa", "experiment": "Synergistic bactericidal activity against multidrug-resistant Pseudomonas aeruginosa CCARM 2095 at 0.5 to 2 uM incubated for 12 hrs in presence of oxacillin by time-kill assay", "assay_type": "functional, organism-based", "details": "dose 0.5-2 µM"}, "[5]": {"tested_on": "RAW264.7", "experiment": "Anti-inflammatory activity in mouse RAW264.7 cells assessed as decrease in LPS-induced NO production upto 10 uM pretreated for 1 hr followed by LPS treatment for 16 hrs by Griess assay", "assay_type": "functional, cell-based", "details": "time 17.0 hrs"}, "[6]": {"tested_on": "Lipopolysaccharide (LPS)", "experiment": "Displacement of BODIPY-TR-cadaverine from Escherichia coli 0111:B4 LPS incubated for 30 mins by fluorescence based assay", "details": "dose <= 32.0 µM"}, "[7]": {"tested_on": "Lipopolysaccharide (LPS)", "experiment": "Displacement of BODIPY-TR-cadaverine from cell-free LPS (unknown origin) at 8 uM incubated for 30 mins by fluorescence based assay relative to control"}, "[8]": {"tested_on": "Lipopolysaccharide (LPS)", "experiment": "Displacement of BODIPY-TR-cadaverine from cell-free LPS (unknown origin) at 16 uM incubated for 30 mins by fluorescence based assay relative to control"}, "[9]": {"tested_on": "Lipopolysaccharide (LPS)", "experiment": "Displacement of BODIPY-TR-cadaverine from Escherichia coli 0111:B4 LPS at 8 uM incubated for 30 mins by fluorescence based assay relative to control"}, "[10]": {"tested_on": "Lipopolysaccharide (LPS)", "experiment": "Displacement of BODIPY-TR-cadaverine from Escherichia coli 0111:B4 LPS at 16 uM incubated for 30 mins by fluorescence based assay relative to control"}, "[11]": {"tested_on": "RAW264.7", "experiment": "Inhibition of cell binding activity of FITC-labeled LPS to surface receptors of mouse RAW264.7 cells at 8 uM incubated for 1 hr by flow cytometry", "assay_type": "cell-based"}, "[12]": {"target": "T1, Toll-like receptor 4 (Mus musculus) (UniProt Q9QUK6)", "T1 sequence (whole entry)": "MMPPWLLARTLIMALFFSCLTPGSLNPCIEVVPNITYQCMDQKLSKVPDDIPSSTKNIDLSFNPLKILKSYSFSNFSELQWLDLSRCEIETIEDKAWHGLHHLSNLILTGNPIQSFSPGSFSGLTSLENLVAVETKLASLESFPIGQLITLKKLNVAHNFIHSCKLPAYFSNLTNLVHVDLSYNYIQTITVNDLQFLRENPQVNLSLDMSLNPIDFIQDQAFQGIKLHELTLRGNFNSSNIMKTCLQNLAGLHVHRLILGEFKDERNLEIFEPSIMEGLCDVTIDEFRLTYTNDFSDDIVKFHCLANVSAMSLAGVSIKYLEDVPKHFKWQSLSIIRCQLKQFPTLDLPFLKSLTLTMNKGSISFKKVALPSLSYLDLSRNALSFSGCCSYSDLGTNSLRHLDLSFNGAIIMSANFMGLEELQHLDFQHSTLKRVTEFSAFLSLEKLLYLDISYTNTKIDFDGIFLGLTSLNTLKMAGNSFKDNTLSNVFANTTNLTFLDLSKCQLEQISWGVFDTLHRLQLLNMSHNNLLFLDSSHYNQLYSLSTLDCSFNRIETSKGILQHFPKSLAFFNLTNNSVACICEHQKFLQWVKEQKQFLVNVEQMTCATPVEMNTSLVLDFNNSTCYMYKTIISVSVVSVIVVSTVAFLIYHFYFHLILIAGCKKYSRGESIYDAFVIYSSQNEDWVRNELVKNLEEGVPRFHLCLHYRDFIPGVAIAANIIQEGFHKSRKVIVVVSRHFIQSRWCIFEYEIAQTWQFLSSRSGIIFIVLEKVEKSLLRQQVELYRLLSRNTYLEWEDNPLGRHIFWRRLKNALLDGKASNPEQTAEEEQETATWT", "experiment": "Inhibition of LPS-induced TLR4 activation in mouse RAW264.7 cells assessed as decrease in p38 MAPK phosphorylation at 2 uM pretreated for 1 hr followed by LPS treatment for 30 mins by Western blot analysis relative to control", "assay_type": "cell-based", "details": "time 90.0 min"}, "[13]": {"tested_on": "Acinetobacter baumannii", "experiment": "Antibacterial activity against carbapenem-resistant Acinetobacter baumannii 1915 incubated for 24 hrs by CLSI based broth microdilution method", "assay_type": "functional, organism-based"}, "[14]": {"tested_on": "Acinetobacter baumannii", "experiment": "Antibacterial activity against carbapenem-resistant Acinetobacter baumannii-induced sepsis shock in ICR mouse model assessed as bacterial growth inhibition in liver at 1 mg/kg, ip pretreated with compound for 1 hr followed by bacterial infection measured after 16 hrs relative to control", "assay_type": "functional", "details": "time 17 hrs"}, "[15]": {"tested_on": "Mus musculus", "experiment": "(§1) Antiseptic activity in sepsis shock ICR mouse model infected with carbapenem-resistant Acinetobacter baumannii assessed as decrease in endotoxin level in serum at 1 mg/kg, ip pretreated with compound for 1 hr followed by bacterial infection measured after 16 hrs relative to control", "assay_type": "functional", "design": "scale not given: the % may be the effect or the level left", "details": "time 17 hrs"}, "[16]": {"tested_on": "Mus musculus", "experiment": "Antiseptic activity in sepsis shock ICR mouse model infected with carbapenem-resistant Acinetobacter baumannii assessed as decrease in IL-1beta level in serum at 1 mg/kg, ip pretreated with compound for 1 hr followed by bacterial infection measured after 16 hrs relative to control", "assay_type": "functional", "design": "scale not given: the % may be the effect or the level left", "details": "time 17 hrs"}, "[17]": {"tested_on": "Mus musculus", "experiment": "Antiseptic activity in sepsis shock ICR mouse model infected with carbapenem-resistant Acinetobacter baumannii assessed as decrease in ALT level in serum at 1 mg/kg, ip pretreated with compound for 1 hr followed by bacterial infection measured after 16 hrs relative to control", "assay_type": "functional", "design": "scale not given: the % may be the effect or the level left", "details": "time 17 hrs"}, "[18]": {"tested_on": "Mus musculus", "experiment": "Antiseptic activity in sepsis shock ICR mouse model infected with carbapenem-resistant Acinetobacter baumannii assessed as decrease in BUN level in serum at 1 mg/kg, ip pretreated with compound for 1 hr followed by bacterial infection measured after 16 hrs relative to control", "assay_type": "functional", "design": "scale not given: the % may be the effect or the level left", "details": "time 17 hrs"}, "[19]": {"tested_on": "Mus musculus", "experiment": "as §1, with “recovery of neutrophil infiltration” for “decrease”, “lungs” for “endotoxin level in serum”, “by H and E staining based analysis” for “relative to control”", "assay_type": "functional, organism-based", "details": "time 17.0 hrs"}, "[20]": {"tested_on": "Mus musculus", "experiment": "Antiseptic activity in sepsis shock ICR mouse model infected with carbapenem-resistant Acinetobacter baumannii assessed as reduction in bacterial count in lungs at 1 mg/kg, ip pretreated with compound for 3 hrs followed by bacterial infection measured after 16 hrs relative to control", "assay_type": "functional", "design": "scale not given: the % may be the effect or the level left", "details": "time 19 hrs"}, "[21]": {"tested_on": "Mus musculus", "experiment": "Antiseptic activity in sepsis shock ICR mouse model infected with carbapenem-resistant Acinetobacter baumannii assessed as reduction in bacterial count in liver at 1 mg/kg, ip pretreated with compound for 3 hrs followed by bacterial infection measured after 16 hrs relative to control", "assay_type": "functional", "design": "scale not given: the % may be the effect or the level left", "details": "time 19 hrs"}, "[22]": {"tested_on": "Mus musculus", "experiment": "Antiseptic activity in sepsis shock ICR mouse model infected with carbapenem-resistant Acinetobacter baumannii assessed as reduction in bacterial count in liver at 1 mg/kg, ip pre-infected with bacteria followed by compound administration 1 hr post-infection measured after 16 hrs relative to control", "assay_type": "functional", "design": "scale not given: the % may be the effect or the level left"}, "[23]": {"tested_on": "Mus musculus", "experiment": "Antiseptic activity in sepsis shock ICR mouse model infected with carbapenem-resistant Acinetobacter baumannii assessed as reduction in serum IL-6 level at 1 mg/kg, ip pretreated with compound for 1 hr followed by bacterial infection measured after 16 hrs relative to control", "assay_type": "functional", "design": "scale not given: the % may be the effect or the level left", "details": "time 17 hrs"}, "[24]": {"tested_on": "Mus musculus", "experiment": "Antiseptic activity in sepsis shock ICR mouse model infected with carbapenem-resistant Acinetobacter baumannii assessed as reduction in serum IL-6 level at 1 mg/kg, ip pre-infected with bacteria followed by compound administration 3 hrs post-infection measured after 16 hrs relative to control", "assay_type": "functional", "design": "scale not given: the % may be the effect or the level left"}}, "note": "Active and inactive are the calls of the source. The calls are words filed in the database; no cut-off is given here."}
{"substance": "H-GVFRLKKWIKKVIKKWGK-NH2", "values": [{"measurement": "Activity", "setting": "[1]", "value": "inactive"}, {"measurement": "Stability", "setting": "[2]", "value": "Unstable"}]}
{"substance": "H-GVFRLKKWLKKVKKWGK-NH2", "values": [{"measurement": "Activity", "setting": "[3]", "value": "Active"}, {"measurement": "Activity", "setting": "[4]", "value": "Active"}, {"measurement": "Activity", "setting": "[5]", "value": "Active"}, {"measurement": "Activity", "setting": "[6]", "value": "Dose-dependent-effect; Activity Similar To Ll-37"}, {"measurement": "Activity", "setting": "[7]", "value": 56, "unit": "%"}, {"measurement": "Activity", "setting": "[8]", "value": 80, "unit": "%"}, {"measurement": "Activity", "setting": "[9]", "value": 38, "unit": "%"}, {"measurement": "Activity", "setting": "[10]", "value": 75, "unit": "%"}, {"measurement": "inhibition", "setting": "[11]", "value": "Active; Activity Comparable To Ll-37 And Pmb"}, {"measurement": "inhibition", "setting": "[12]", "value": 63, "unit": "%"}, {"measurement": "Activity", "setting": "[13]", "value": "Active"}, {"measurement": "inhibition in vivo at 1 mg/kg", "setting": "[14]", "value": 95.7, "unit": "%"}, {"measurement": "Activity", "setting": "[15]", "value": ">56.1", "unit": "%"}, {"measurement": "Activity", "setting": "[16]", "value": 68.7, "unit": "%"}, {"measurement": "Activity", "setting": "[17]", "value": 67.8, "unit": "%"}, {"measurement": "Activity", "setting": "[18]", "value": 56.7, "unit": "%"}, {"measurement": "Activity", "setting": "[19]", "value": "Active"}, {"measurement": "Activity", "setting": "[20]", "value": 98, "unit": "%"}, {"measurement": "Activity", "setting": "[21]", "value": 99.4, "unit": "%"}, {"measurement": "Activity", "setting": "[22]", "value": 97.7, "unit": "%"}, {"measurement": "Activity", "setting": "[23]", "value": 100, "unit": "%"}, {"measurement": "Activity", "setting": "[24]", "value": 14.8, "unit": "%"}]}
